# Laboratory results from article PMC4389228, “Ainsliadimer A selectively inhibits IKKα/β by covalently binding a conserved cysteine” (Nature Communications, 2015).
# Columns and labels:
# [1] = molecular target: T1, IKKβ (Homo sapiens, UniProt O14920); test: direct biotin labelling of purified protein, streptavidin pull-down and blot, competed by ainsliadimer A; time-dependent binding
# T1 construct: gene IKBKB; purified Flag-IKKβ
# T1 sequence (O14920 1-756): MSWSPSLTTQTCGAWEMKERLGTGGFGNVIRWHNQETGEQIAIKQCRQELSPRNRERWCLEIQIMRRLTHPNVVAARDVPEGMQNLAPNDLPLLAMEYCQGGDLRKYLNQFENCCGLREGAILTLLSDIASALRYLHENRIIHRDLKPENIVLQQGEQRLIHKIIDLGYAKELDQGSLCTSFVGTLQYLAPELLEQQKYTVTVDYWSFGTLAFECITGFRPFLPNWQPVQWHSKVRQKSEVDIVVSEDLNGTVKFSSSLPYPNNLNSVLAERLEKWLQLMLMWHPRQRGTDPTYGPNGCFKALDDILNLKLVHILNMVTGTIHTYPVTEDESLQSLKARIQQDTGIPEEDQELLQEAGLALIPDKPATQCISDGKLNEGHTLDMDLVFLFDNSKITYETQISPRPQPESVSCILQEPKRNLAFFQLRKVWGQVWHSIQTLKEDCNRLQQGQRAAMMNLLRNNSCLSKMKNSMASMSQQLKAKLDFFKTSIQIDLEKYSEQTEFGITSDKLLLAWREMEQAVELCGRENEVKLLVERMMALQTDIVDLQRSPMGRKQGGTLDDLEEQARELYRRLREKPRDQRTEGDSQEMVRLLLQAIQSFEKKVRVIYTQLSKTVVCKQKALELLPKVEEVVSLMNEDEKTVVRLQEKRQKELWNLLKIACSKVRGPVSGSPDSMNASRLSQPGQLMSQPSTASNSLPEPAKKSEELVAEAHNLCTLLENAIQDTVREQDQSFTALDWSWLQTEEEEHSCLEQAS
# [2] = molecular target: T2, IKKα (Homo sapiens, UniProt O15111); test: direct biotin labelling of purified protein, streptavidin pull-down and blot; type: binding
# T2 construct: gene CHUK; purified Flag-IKKα
# T2 sequence (O15111 1-745): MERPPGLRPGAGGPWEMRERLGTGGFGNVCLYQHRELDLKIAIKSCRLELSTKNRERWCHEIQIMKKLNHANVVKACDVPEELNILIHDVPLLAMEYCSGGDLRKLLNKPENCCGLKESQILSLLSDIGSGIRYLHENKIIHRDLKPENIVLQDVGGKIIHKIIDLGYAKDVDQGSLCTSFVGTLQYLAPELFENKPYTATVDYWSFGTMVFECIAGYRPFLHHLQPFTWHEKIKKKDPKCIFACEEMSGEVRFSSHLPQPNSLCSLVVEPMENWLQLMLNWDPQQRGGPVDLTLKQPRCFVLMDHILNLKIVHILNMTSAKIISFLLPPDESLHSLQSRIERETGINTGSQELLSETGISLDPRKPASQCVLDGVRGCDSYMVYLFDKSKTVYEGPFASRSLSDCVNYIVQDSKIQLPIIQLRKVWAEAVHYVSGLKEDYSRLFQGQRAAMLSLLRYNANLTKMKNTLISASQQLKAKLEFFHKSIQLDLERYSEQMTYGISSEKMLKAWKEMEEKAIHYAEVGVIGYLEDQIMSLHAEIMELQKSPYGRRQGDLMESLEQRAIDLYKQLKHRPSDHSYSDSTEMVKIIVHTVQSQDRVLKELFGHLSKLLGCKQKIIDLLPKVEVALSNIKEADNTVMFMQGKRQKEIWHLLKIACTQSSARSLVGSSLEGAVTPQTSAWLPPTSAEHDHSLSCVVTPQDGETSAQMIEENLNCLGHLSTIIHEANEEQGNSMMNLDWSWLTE
smiles,measurement,setting,value
C=C1C(=O)O[C@@H]2[C@@H]3[C@@H](C[C@H](OC(=O)CCOCCOCCOCCNC(=O)CCCC[C@@H]4SC[C@@H]5NC(=O)N[C@@H]54)[C@]34CC[C@]3(O)[C@@H]5[C@H]6OC(=O)C(=C)[C@@H]6CCC(=C)[C@@H]5C[C@]43O)C(=C)CC[C@@H]12 [Probe],"direct biotin labelling of purified protein, streptavidin pull-down and blot, co",[1],we also observed a similar interaction pattern between Probe and recombinant IKKβ (Fig. 4d)
same,"direct biotin labelling of purified protein, streptavidin pull-down and blot",[2],suggesting that there is a strong interaction between Probe and recombinant IKKα
